Like-named read-outs stand apart in the source and are kept apart here. One block for each compound: values may come before it.
Assays:
[1] = molecular target: T1, Hes1 dimer formation (Hes1-Hes1 interaction) (Rattus norvegicus, UniProt Q04666); experiment: Hes1-Hes1 interaction fluorescent plate assay (Hes1 dimer formation inhibition); type: binding; conditions: for remaining activity at 5 µM: 5 μM compound; for remaining activity at 100 µM: 100 μM compound
T1 construct: Glutathione-S-transferase (GST) fused rat Hes1(3–281) protein was expressed in Escherichia coli; GST (N, cleaved yes); GST (N); made in house; host or cells: Escherichia coli JM109 (pGEX-ratHes1 3-281)
T1 sequence (Q04666 3-281): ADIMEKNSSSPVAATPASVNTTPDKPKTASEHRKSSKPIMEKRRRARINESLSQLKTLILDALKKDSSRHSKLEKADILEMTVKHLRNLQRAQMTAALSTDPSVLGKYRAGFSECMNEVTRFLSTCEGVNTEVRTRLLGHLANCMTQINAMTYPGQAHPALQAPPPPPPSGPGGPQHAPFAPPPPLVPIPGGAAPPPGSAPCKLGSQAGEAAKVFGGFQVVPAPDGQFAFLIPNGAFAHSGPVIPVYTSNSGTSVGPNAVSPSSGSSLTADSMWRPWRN
Text: It is essential to inhibit undesired PPIs in drug development, and bioactivity-guided isolation using the inhibitory activity of PPIs is an attractive method to obtain effective inhibitors. However, currently there are only a few examples of such approaches using PPI assay systems[22],[23]. We previously developed a Hes1-Hes1 interaction fluorescent plate assay and reported the screening results of our natural products compound library (Fig. 2A)[24]. Glutathione-S-transferase (GST) fused rat Hes1(3–281) protein was expressed in Escherichia coli and purified rat Hes1 protein was immobilized on the bottom of 96 well plates. We prevented GST-GST interactions, which would result in false positives, by preparing GST-free Hes1 protein by GST cleavage with Turbo3C protease. After labeling Hes1 with Cy3, this florescent Hes1 protein was added to the wells of the above plate and incubated for 24 h at 4 °C. Hes1-Hes1 interaction was successfully detected as Cy3 fluorescence intensity. Using this assay system, we screened our 118 plant extract library and identified the MeOH extract of Psidium guajava leaves to contain naturally occurring compounds that inhibit Hes1 dimer formation. The MeOH extract (29.9 g) was fractionated using Diaion HP-20 with a MeOH-acetone solvent system to afford fractions 1A to 1C. Active fraction 1A (27.2 g) was suspended in 10% aq. MeOH and partitioned with hexane, EtOAc and BuOH to obtain hexane (1.1 g), EtOAc (5.7 g), BuOH (4.7 g) and aqueous (18.9 g) soluble fractions. Part of the active BuOH soluble fraction was subjected to ODS column chromatography and reverse-phase HPLC. Activity-guided separation yielded ten compounds (1–10; Fig. 3). The isolated compounds were identified as morin (1)[25], isoquercitrin (2)[26], methyl gallate (3)[27], (+)-catechin (4)[28],[29], dihydrophaseic acid (5)[30], quercetin (6)[26],[31], avicularin (7)[32],[33], gallic acid (8)[34], protocatechuic acid (9)[35] and 4-hydroxybenzoic acid (10)[36] based on comparisons of their spectral data with spectra in the literature.
Hes1-bound microplate wells[24] (Nunc Immobilizer^TM Amino Plate, Thermo) were incubated with 50 μL of Cy3-labeled-Hes1 in NET-N buffer (NET buffer (20 mM Tris-HCl, pH 7.5, 200 mM NaCl, 1 mM EDTA) containing 0.05% Nonidet® P-40, ca. 7 mg/L, dye/protein = 0.4) for 24 h at 4 °C. After removing the protein solution, the wells were washed twice with 200 μL of PBST, then each compound solution (in NET-N buffer, 50 μL) was added and the plates were incubated for 1 h at RT in the dark. The wells were washed twice with 200 μL of PBST, then dried under reduced pressure for 1 h in the dark. The Cy3 dye was excited at 544 nm and emission was monitored at 590 nm using a microplate reader (Fluoroskan Ascent, Thermo Labsystems, Vantaa, Finland). The assays were typically carried out in three individual wells, and the mean value and SD were calculated. The equilibrium between dimer formation between Cy3-Hes1/Cy3-Hes1 (in solution) and Cy3-Hes1/immobilized-Hes1 allowed the detection of Cy3-Hes1/immobilized-Hes1.
Typical procedure; Nunc Immobilizer^TM Amino 96 well Plate, white (Nalge Nunc Int., NY, USA) was used for immobilizing of Hes1. The micro plate wells were incubated with 100 µl of Hes1 (10 µg/mL in PBS) 2 h at 4 °C. After removing protein solution, the wells were incubated for 2 h at 4 °C with 100 µL of 10 mM ethanolamine (in 100 mM Na2CO3 buffer, pH 9.6) to block remaining activated units on the well. Then, wells were washed twice with 200 µL of PBST (PBS containing 0.05% Tween 20).
The Cy3 dye reagent was prepared as 1 vial of Cy3 monofunctional dye reagent (succinimidylester type; GE Healthcare, Buckinghamshire, UK) in DMSO (50 µL) and stored at -20 °C. Cy3-labeled Hes1 was prepared by mixing of protein in PBS with Cy3 dye reagent in DMSO (typically 0.6 µL of DMSO solution to 1 mL of 10 mg/L protein solution in PBS) for 30 min at 4 °C in the dark. […]

NSCs = conditions: cited from earlier work
[2] = tested on: C17.2 mouse neural stem cells; experiment: Neural stem cell differentiation assay (Tuj1/GFAP immunofluorescence staining); type: cell-based; conditions: C17.2 cells, 6 days, positive control
Text: We recently developed another protein-based screening method, the target protein oriented natural products isolation method (TPO-NAPI) using protein beads (Fig. 2B). Agalloside, inohanamine, α-mangostine, BE-14106, isomicromonolactam, staurosporin and linarin were isolated as Hes1 binding compounds using the TPO-NAPI method[15],[17]. Rat Hes1 (1–95) containing basic and helix-loop-helix domains was immobilized because the helix-loop-helix domain is known to be important for Hes1-Hes1 interaction; therefore, utilizing this domain in the beads method would likely be effective for screening Hes1 dimer inhibitors. GST-Hes1 immobilized beads were prepared by mixing freshly prepared GST-Hes1 protein with glutathione Sepharose 4B beads. GST-only beads were prepared as a control. After incubating the beads with plant MeOH extracts at 4 °C for 2 h, bound compounds were eluted by adding EtOH and heating at 100 °C for 3 min, then the eluted compounds were analyzed by HPLC. […] The MeOH extract (64.6 g) of Terminalia chebula bark was partitioned with hexane, EtOAc and BuOH to obtain hexane (1.5 g), EtOAc (3.6 g), BuOH (42.6 g), and aqueous (20.5 g) soluble fractions. The EtOAc fraction contained the target peak and was subjected to silica gel column chromatography to give eight fractions (1A-H). Fraction 1D contained the target peak and was separated by ODS column chromatography and reverse-phase HPLC to give compound 11 (0.4 mg). Compound 11 was identified as 4-O-(4″-O-galloyl-α-L-rhamnopyranosyl)ellagic acid by comparison of its NMR data with reported spectral data[37]. […] This is the strongest Hes1 dimer inhibitor reported to date. The ability of 11 to accelerate the differentiation of C17.2 mouse neural stem cells was evaluated (Fig. 5). C17.2 cells (2 × 10^5 cells/mL) were seeded in a poly-L-lysine-coated 24 well plates and incubated for 24 h, then the cells were treated with DMSO (control), 100 μM valproic acid (VPA), 5 μM retinoic acid (RA) (positive controls) or 11 (1 or 5 μM) for 6 days. A confocal microscope was used to obtain images of differentiated neural cells after immunostaining class III β-tubulin (Tuj1) in neurons, and glial fibrillary acidic protein (GFAP) in astrocytes and nuclei (TO-PRO-3). […] In contrast, the control dish containing cells treated with DMSO contained small number of neurons.
C17.2 cells were cultured in proliferation medium [DMEM (DS Pharma Biomedical Co., Ltd. Osaka, Japan) supplemented with 10% fetal bovine serum (Biowest, Nuaillé, France), 5% horse serum (Gibco, Life Technologies, Tokyo, Japan)]. Neural differentiation of C17.2 cells was initiated by transferring the cells to differentiation medium [Neurobasal Medium (Gibco) supplemented with 2% B-27 without vitamin A (Gibco), 1% antibiotic-antimycotic (Gibco)]. All cultures were maintained in a humidified incubator at 37 °C in 5% CO2/95% air.
C17.2 cells were dissociated using the proliferation medium 2 × 10^5 cells/mL on cover glass (MATSUNAMI GLASS) coated with poly-L-lysine and fibronectin/laminin. After incubation for 24 h, cells were washed with D-MEM and treated with individual compounds in differentiation medium for 6 days.
C17.2 cells were fixed with 4% paraformaldehyde in PBS for 20 min at room temperature (r.t.) and washed with 1% BSA in PBS three times. After blocking with 10% BSA in 0.3% Triton X-100 in PBS for 45 min at r.t., fixed cells were incubated with primary antibodies (anti-βIII-Tubulin; Neuronal Class III, Mouse-Mono, 1:400, R&D Systems^TM; anti-GFAP, 1:400, VERITAS) for 12 h at 4 °C. After washing three times with 1% BSA in PBS (500 μL/well), cells were incubated with secondary antibodies (Alexa Fluor® 488 goat anti-mouse IgG (H + L), 1:400, Life Technologies; Alexa Fluor® 555 goat ant-rabbit IgG (H + L), 1:200, Life Technologies) for 1 hr at r.t. in the dark. […]

[3] = Hes1 dimer formation inhibitory activity IC50, Cy3-labeled Hes1 / immobilized Hes1, compound 1 h at RT
[4] = 24 h, 0 μM = 100, read-out: Hes1 dimer formation rate (%)
[5] = 24 h, 25 μM compound, 0 μM = 100, read-out: Hes1 dimer formation rate (%)
[6] = 24 h, 50 μM compound, 0 μM = 100, read-out: Hes1 dimer formation rate (%)
[7] = Cy3-labeled Hes1 / immobilized Hes1, compound 1 h at RT, read-out: Hes1 dimer formation inhibitory activity IC50
[8] = 24 h, 10 μM compound, 0 μM = 100, read-out: Hes1 dimer formation rate (%)
[9] = 24 h, read-out: Hes1 dimer formation rate (%)

SMILES: O=C(O)c1cc(O)c(O)c(O)c1 [Commercially available gallic acid, gallic acid, reference compound]
- IC50 [1, 3]: 8.9 µM

- remaining activity at 5 µM [1, 4]: 89.7%
- remaining activity at 25 µM [1, 5]: 79.2%
- remaining activity at 50 µM [1, 6]: 37.8%
- IC50 [1, 7]: 40.8 µM
SMILES: O=c1c(O)c(-c2ccc(O)cc2O)oc2cc(O)cc(O)c12 [Compound 1, morin]

SMILES: O=c1c(O[C@@H]2O[C@H](CO)[C@@H](O)[C@H](O)[C@H]2O)c(-c2ccc(O)c(O)c2)oc2cc(O)cc(O)c12 [Compound 2, isoquercitrin]
- remaining activity at 20 µM ([1]; 24 h, 20 μM compound, 0 μM = 100, read-out: Hes1 dimer formation rate (%)): 67.2%
- remaining activity at 60 µM ([1]; 24 h, 60 μM compound, 0 μM = 100, read-out: Hes1 dimer formation rate (%)): 34.5%
- remaining activity at 80 µM ([1]; 24 h, 80 μM compound, 0 μM = 100, read-out: Hes1 dimer formation rate (%)): 28.3%
- IC50 [1, 7]: 35.7 µM

- remaining activity at 5 µM [1, 4]: 68.4%
- remaining activity at 10 µM [1, 8]: 54.3%
- remaining activity at 25 µM [1, 5]: 39.2%
- IC50 [1, 7]: 12.7 µM
SMILES: COC(=O)c1cc(O)c(O)c(O)c1 [Compound 3, methyl gallate]

- remaining activity at 25 µM [1, 5]: 95.4%
- remaining activity at 50 µM [1, 6]: 79.2%
- remaining activity at 100 µM [1, 4]: 78.8%
SMILES: Oc1cc(O)c2c(c1)O[C@H](c1ccc(O)c(O)c1)[C@@H](O)C2 [Compound 4, (+)-catechin]

- remaining activity at 25 µM [1, 5]: 125%
- remaining activity at 50 µM [1, 6]: 122%
- remaining activity at 100 µM [1, 4]: 127%
SMILES: CC(C=CC1(O)C2(C)COC1(C)CC(O)C2)=CC(=O)O (stereo not drawn) [Compound 5, dihydrophaseic acid]

SMILES: O=c1c(O)c(-c2ccc(O)c(O)c2)oc2cc(O)cc(O)c12 [Compound 6, quercetin]
- remaining activity at 30 µM ([1]; 24 h, 30 μM compound, 0 μM = 100, read-out: Hes1 dimer formation rate (%)): 82.5%
- remaining activity at 40 µM ([1]; 24 h, 40 μM compound, 0 μM = 100, read-out: Hes1 dimer formation rate (%)): 66.5%
- remaining activity at 50 µM [1, 6]: 35.7%
- IC50 [1, 7]: 45.1 µM

- remaining activity at 5 µM [1, 4]: 74.6%
- remaining activity at 25 µM [1, 5]: 51.3%
- remaining activity at 50 µM [1, 6]: 23.8%
- IC50 [1, 7]: 26.5 µM
SMILES: O=c1c(O[C@@H]2O[C@@H](CO)[C@H](O)[C@H]2O)c(-c2ccc(O)c(O)c2)oc2cc(O)cc(O)c12 [Compound 7, avicularin]

SMILES: O=C(O)c1cc(O)c(O)c(O)c1 [Compound 8, gallic acid]
- remaining activity at 5 µM [1, 4]: 53.9%
- remaining activity at 10 µM [1, 8]: 50.7%
- remaining activity at 25 µM [1, 5]: 26.2%
- IC50 [1, 3]: 10.3 µM

SMILES: O=C(O)c1ccc(O)c(O)c1 [Compound 9, protocatechuic acid]
- remaining activity at 10 µM [1, 9]: 61.7%
- remaining activity at 25 µM [1, 9]: 49.3%
- remaining activity at 50 µM [1, 9]: 44.9%
- IC50 [1, 7]: 23.8 µM

- remaining activity at 25 µM [1, 5]: 58.8%
- remaining activity at 50 µM [1, 6]: 50.4%
- remaining activity at 100 µM [1, 4]: 39.8%
- IC50 [1, 7]: 51.2 µM
SMILES: O=C(O)c1ccc(O)cc1 [Compound 10, 4-hydroxybenzoic acid]

SMILES: CCCC(=O)/C=C/C1=C(O)C(=O)c2cc(O)c(O)cc2C1=O [Lindbladione]
- differentiation of NSCs to neurons (NSCs): accelerated the differentiation of NSCs to neurons

SMILES: CC1=C(/C=C/C(C)=C/C=C/C(C)=C/C(=O)O)C(C)(C)CCC1 [RA, retinoic acid, reference compound]
- number of neurons ([2]; 5 μM): increased

SMILES: CCCC(CCC)C(=O)O [VPA, valproic acid, reference compound]
- number of neurons ([2]; 100 μM): increased

Reference: article PMC6987128, “Target protein-oriented isolation of Hes1 dimer inhibitors using protein based methods” (Scientific Reports, 2020)
